# Data reported in patent publication US9427429B2, “Cancer diagnosis and imaging” (Tau Therapeutics LLC, priority 2010, dated 2016).
# Legend:
# Assay type in all cases: cell-based
# A10 cells = test: Cell cycle analysis by flow cytometry and BUdR staining, with nocodazole block; conditions: for cell cycle arrest point: A10 cells treated 24 hours with T channel blocker before adding nocodazole, FIG. 3
# Procedure: Cell cycle analysis was performed using flow cytometry and BUdR staining. In FIG. 3, “Con” represents untreated, control cells. All other cell cultures were treated with nocodazole, which interferes with microtubule polymerization and blocks the cell cycle during M phase. […] Therefore, cell cultures were treated for 24 hours with T channel calcium channel blockers mibefradil (mib), nickel (Ni) or TTL-1177 (a proprietary compound owned by the assignee Tau Therapeutics), before adding nocodazole.
# [1] = test system: human lung cancer cells of cell line A549; test: Cell cycle progression after mibefradil incubation, A549
# Procedure: (§1) To measure the efficacy of the cell cycle inhibitor mibefradil at stopping progression through the cell cycle, human lung cancer cells of cell line A549 and human prostate cancer cells of cell line were incubated with 10 μM mibefradil for 48 hours (M48H). […] Further data was collected by incubating the same cell lines with 10 μM of mibefradil for 18 hours followed by a 12 hour washout followed by another […] incubation with mibefradil (M18-12-18h).
# [2] = test system: human prostate cancer cells; test: Cell cycle progression after mibefradil incubation, prostate cancer cells
# Procedure: as §1
# [3] = test system: human prostate cancer cells of cell line PC3; test: Effect of mibefradil on the cell cycle of PC3 cells; conditions: PC3, 5 μM or 10 μM for 24 hours or 48 hours; effect of increasing concentration and contact time; FIG. 5
# Procedure: To measure the effect of mibefradil on the cell cycle of human prostate cancer cells of cell line PC3, PC3 cells were incubated with varying concentrations of mibefradil for varying times. The PC3 cells were incubated with either a 5 μM concentration or a 10 μM concentration for either 24 hours or 48 hours.
# [4] = test system: Human colon cancer cells, cell line HT29; test: Uptake of imaging marker FDG after mibefradil, HT29; conditions: FDG 60 minutes after removal
# Procedure: The efficacy of the uptake of imaging markers after treatment with a cell cycle inhibitor was determined. Human colon cancer cells, cell line HT29, were first incubated for 24 hours with the cell cycle inhibitor mibefradil at concentrations of 5 μM (5 uM-FDG-HT29) and 10 μM (10 uM-FDG-HT29). After 24 hours of incubation with the mibefradil, the HT29 cells were removed from mibefradil contact. After 60 minutes of being removed from mibefradil contact, the imaging marker 2-deoxy-2-(^18F)fluoro-D-glucose (hereinafter, “FDG”) was administered.
# With a concentration of 10 μM of mibefradil, the increase in uptake of FDG was about 100% as compared to uptake of cells not incubated with mibefradil.
# [5] = test system: human lung cancer cells of cell line A549; test: Uptake of imaging marker 3H-FDG after mibefradil, A549; conditions: 3H-FDG 30 minutes after removal
# Procedure: (§2) The uptake of an imaging marker was also determined in human lung cancer cells of cell line A549. A549 cells were incubated with 5 μM, 10 μM and 15 μM concentrations of the cell cycle inhibitor mibefradil for 24 hours. After 24 hours of incubation with the mibefradil, the A549 cells were removed from mibefradil contact. After 30 minutes of being removed from mibefradil contact, the imaging marker tritiated FDG (hereinafter “3H-FDG”) was administered. […] Although not shown, incubation of human prostate cancer cells of the PC3 cell line with 10 μM mibefradil for 72 hours increased uptake of the subsequently introduced imaging marker 3H-FDG by about 60%.
# [6] = test system: human prostate cancer cells of the PC3 cell line; test: Uptake of imaging marker 3H-FDG after mibefradil, PC3; conditions: PC3, 10 μM mibefradil for 72 hours; data not shown
# Procedure: as §2
SMILES,cell cycle arrest point (A10 cells),"proportion of cells in the G1 phase vs control ([1]; A549, 10 μM for 18 hours, 12 hour washout, another 8 hour incubation (M18-12-18h))","proportion of cells in the G1 phase ([1]; A549, 10 μM mibefradil for 48 hours (M48H), FIG. 4)","proportion of cells in the G1 phase vs control ([2]; 10 μM for 18 hours, 12 hour washout, another 8 hour incubation (M18-12-18h))","proportion of cells in the G1 phase ([2]; 10 μM mibefradil for 48 hours (M48H), FIG. 4)",proportion of cells in the G1 phase [3],"uptake of the imaging marker FDG vs cells not incubated ([4]; HT29, 5 μM and 10 μM mibefradil 24 hours, FIG. 6)","increase in uptake of FDG vs cells not incubated ([4]; HT29, 10 μM mibefradil 24 hours)","uptake of 3H-FDG ([5]; A549, 5 μM, 10 μM and 15 μM mibefradil 24 hours, FIG. 7)","mibefradil concentration of maximal 3H-FDG uptake ([5]; A549, 24 hours incubation, 5, 10, 15 μM tested) [µM]",increase in uptake of 3H-FDG [6],"cell cycle block (A10 cells; A10 cells, nocodazole alone, flow cytometry)"
COCC(=O)O[C@]1(CCN(C)CCCc2nc3ccccc3[nH]2)CCc2cc(F)ccc2[C@@H]1C(C)C [mibefradil],arrested cells at the cell cycle checkpoint between G0 and G1,greater proportion of cells in the G1 phase,increased the proportion of cells in the G1 phase,greater proportion of cells in the G1 phase,increased the proportion of cells in the G1 phase,increases the proportion of cells in the G1 phase,increased,about 100%,increase in uptake being observed at all concentrations,5,about 60%,–
[Ni] [nickel],arrested cells at the cell cycle checkpoint between G0 and G1,–,–,–,–,–,–,–,–,–,–,–
COC(=O)Nc1nc2ccc(C(=O)c3cccs3)cc2[nH]1 [nocodazole],–,–,–,–,–,–,–,–,–,–,–,blocked cell cycle transit through M phase
